{"source": "patent US12077568B2", "about": "(University of Houston System, priority 2018, dated 2024)", "key": {"normal mice": {"tested_on": "normal mice", "assay": "Lowering of blood glucose level in normal mice", "format": "in vivo", "conditions": "intraperitoneal, 20-24 μg/mouse", "method": "FIGS. 7A-B. Effect of SPC-insulins on lowering blood glucose level in vivo. The purified yeast-(FIG. 7A) or E. coli-(FIG. 7B) expressed SPC-insulin-P (p-insulin) and SPC-insulin-PP (2p-insulin) (20-24 μg/mouse) was injected (intraperitoneally) into normal mice. The glucose levels of the blood collected from tail vein at the increasing time points were measured using Contour^next One glucose meter (n=6). Humulin R (20-24 μg/mouse) was used as a positive control (n=6, M±SE). The mice were under normal diets.\nFIGS. 8A-B. (FIG. 8A) Effect of SPC-insulins on lowering blood glucose level of normal mice using subcutaneous injection. The yeast-expressed SPC-insulin-P (p-insulin) and SPC-insulin-PP (2p-insulin) (20-30 μg/mouse) was injected subcutaneously into the normal mice (n=6). (FIG. 8B) Effects of the purified E. coli-expressed SPC-insulins on lowering blood glucose level of STZ-induced type-1 diabetic mice. 20-30 μg/mouse of the purified E. coli-expressed SPC-P (P-insulin) or SPC-insulin-PP (PP-insulin) was intraperitoneally injected into the STZ-induced Type-1 diabetic mice (with an elevated blood glucose levels of 370-400 mg/dl, n=6). The glucose levels of the blood collected from the mouse tail vein at the increasing time points were measured using Contour^next One glucose meter. Humulin R (20-24 μg/mouse) was used as a positive control (n=6, M±SE). […]"}, "[1]": {"conditions": "commercial insulins; cited from earlier work"}, "[2]": {"tested_on": "STZ-induced type-1 diabetic mice", "assay": "Lowering of blood glucose level in STZ-induced type-1 diabetic mice", "format": "in vivo", "conditions": "intraperitoneal, 20-30 μg/mouse; for start of working after injection: purified E. coli-expressed", "method": "FIGS. 8A-B. (FIG. 8A) Effect of SPC-insulins on lowering blood glucose level of normal mice using subcutaneous injection. The yeast-expressed SPC-insulin-P (p-insulin) and SPC-insulin-PP (2p-insulin) (20-30 μg/mouse) was injected subcutaneously into the normal mice (n=6). (FIG. 8B) Effects of the purified E. coli-expressed SPC-insulins on lowering blood glucose level of STZ-induced type-1 diabetic mice. 20-30 μg/mouse of the purified E. coli-expressed SPC-P (P-insulin) or SPC-insulin-PP (PP-insulin) was intraperitoneally injected into the STZ-induced Type-1 diabetic mice (with an elevated blood glucose levels of 370-400 mg/dl, n=6). The glucose levels of the blood collected from the mouse tail vein at the increasing time points were measured using Contour^next One glucose meter. Humulin R (20-24 μg/mouse) was used as a positive control (n=6, M±SE). STZ-Control=oval; Hummulin R=rectangle; SPC-Insulin-P=upward pointing triangle; SPC-Insulin-PP=downward pointing triangle.\nThe second animal model is the STZ-induced type-1 diabetic mouse. The mice received STZ injection quickly developed into type 1 diabetes because STZ destroyed the insulin-producing cells in pancreas and elevated the glucose level (FIGS. 8A-B, blood glucose level labeled with STZ). The both of the purified SPC-insulin-P and -PP were tested on the diabetic mice. Similar to that of the normal mice, the SPC-insulins started working around 1-1.5 hours after injection, reached to the best therapeutic effects around 4 hours, and then last for 24-48 hours (FIGS. 8A-B)."}}, "data": [{"substance": "Humulin R: commercial regular human insulin, two-chain, used as positive control", "values": [{"measurement": "duration of blood glucose lowering effect", "setting": "normal mice", "result": "4 to 8", "unit": "h"}]}, {"substance": "insulin Glargine", "values": [{"measurement": "duration of action", "setting": "[1]", "result": "18 to 24", "unit": "h"}]}, {"substance": "insulin Detemir", "values": [{"measurement": "duration of action", "setting": "[1]", "result": "18 to 24", "unit": "h"}]}, {"substance": "SPC-insulin-P: single polypeptide chain human insulin, b-chain C-terminus linked to a-chain N-terminus by one proline residue", "values": [{"measurement": "duration of effect", "setting": "[2]", "result": "24 to 48", "unit": "h"}, {"measurement": "time to best therapeutic effect", "setting": "[2]", "result": "around 4 hours"}, {"measurement": "start of working after injection", "setting": "[2]", "result": "1 to 1.5", "unit": "h"}]}, {"substance": "SPC-insulin-PP: single polypeptide chain human insulin, b-chain linked to a-chain by two proline residues", "values": [{"measurement": "duration of effect", "setting": "[2]", "result": "24 to 48", "unit": "h"}, {"measurement": "time to best therapeutic effect", "setting": "[2]", "result": "around 4 hours"}, {"measurement": "start of working after injection", "setting": "[2]", "result": "1 to 1.5", "unit": "h"}]}]}
